Our source for the IC50 and Ki values is patent US9428504B2, “7-hydroxy-spiropipiperidine indolinyl antagonists of P2Y1 receptor” (BRISTOL-MYERS SQUIBB COMPANY, priority 2012, dated 2016).

One may read the IC50 as the point on the concentration scale where inhibition reaches its midpoint. One may read the Ki as a dissociation constant, usually derived from enzyme kinetics or from competition with a known ligand.

Where a name gives a salt, the structure may show the parent alone.

In test [1] the test system is human platelet rich plasma (PRP). In words: ADP induced platelet aggregation assay. Conditions: Homo sapiens, Platelet, read-out: PA IC50 (μM) @ 10 μM ADP, platelet aggregation induced by 10 μM ADP, human PRP.
Method: The ability of P2Y1 antagonists covered in the present invention to inhibit platelet aggregation induced by 10 μM ADP was tested using human platelet rich plasma (PRP) as described in Platelet Protocols: Research and Clinical Laboratory Procedures (White, M. M. et al., Academic Press (1999)). Human blood was collected in 30 μM (final concentration in blood) argatroban (GSK) as the anticoagulant at a ratio of 1 ml per 9 ml of blood. The PRP was isolated by centrifugation at 170 g for 12 minutes. The platelet poor plasma (PPP) was used as the blank for optical aggregometry. Compounds of the present invention in DMSO solution was preincubated with 250 μl PRP at 37° C. for 1 minute with stirring speed of 1000 rpm. Aggregation was initiated by addition of 2.5 μl of 1 mM ADP (Chrono-log, Havertown, Pa.) for a final ADP concentration of 10 μM. Platelet aggregation was monitored using Optical Aggregometer (Chrono-log, Havertown, Pa.) and the area under the curve (AUC) at 5 minute was measured. IC50 was calculated using vehicle control as 0% inhibition.
Test [2] concerns the target cloned human P2Y1 receptors (Homo sapiens (Human), UniProt P47900). Kind of test: Binding Assay B: Scintillation Proximity Assay (SPA) for P2Y1 binding. Particulars: SPA, [33P] 2MeS-ADP displacement; read-out: P2Y1 Ki (nM) using binding assay B. The procedure, abridged: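 Membranes with ~15 fmol receptor (1.7 μg total protein) incubated with 0.3 nM [^33P]-labelled radioligand for 1 h at room temperature to completion. After centrifugation and removal of aqueous phase, bound radioactivity read by scintillation proximity; inhibition of radioligand binding measured.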
A general note: Scintillation proximity formats need no separation of bound from free tracer.

cloned human P2Y1 receptors, sequence (P47900 whole entry): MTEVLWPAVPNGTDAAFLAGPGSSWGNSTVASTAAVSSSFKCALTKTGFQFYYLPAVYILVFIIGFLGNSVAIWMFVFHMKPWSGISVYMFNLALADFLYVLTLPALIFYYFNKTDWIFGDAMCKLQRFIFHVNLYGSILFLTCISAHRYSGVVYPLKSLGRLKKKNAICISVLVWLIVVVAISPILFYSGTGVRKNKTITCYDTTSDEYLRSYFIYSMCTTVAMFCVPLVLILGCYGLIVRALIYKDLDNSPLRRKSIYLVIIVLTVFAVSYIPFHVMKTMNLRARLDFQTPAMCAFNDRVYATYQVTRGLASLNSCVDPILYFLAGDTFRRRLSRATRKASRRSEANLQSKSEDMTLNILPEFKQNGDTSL

For `CC(C)(C)CN1CCC2(CC1)CN(c1ccccc1NC(=O)Nc1nc3ccc(Cl)cc3s1)c1c(O)ccc(C(F)(F)F)c12` [Example 21, 1-(6-Chlorobenzo[d]thiazol-2-yl)-3-(2-(7-hydroxy-1′-neopentyl-4-(trifluoromethyl)spiro[indoline-3,4′-piperidine]-1-yl)phenyl)urea], the IC50 in test [1] was 0.4 µM. For the same compound, the Ki in test [2] was 30.9 nM.
For `CC(C)(C)CN1CCC2(CC1)CN(c1ccccc1NC(=O)Nc1ccc(C(C)(C)C)cc1)c1c(O)cccc12` [Example 5, 1-(4-tert-Butylphenyl)-3-(2-(7-hydroxy-1′-neopentylspiro[indoline-3,4′-piperidine]-1-yl)phenyl)urea] the same measures were 0.4 µM and 8.3 nM.
Taken in the same sequence, the figures for `CC(C)(C)CN1CCC2(CC1)CN(c1ccccc1NC(=O)Nc1nc3ccc(F)nc3s1)c1c(O)cc(F)c(Cl)c12` [Example 102, 1-(2-(4-Chloro-5-fluoro-7-hydroxy-1′-neopentylspiro [indoline-3,4′-piperidin]-1-yl)phenyl)-3-(5-fluorothiazolo [5,4-b]pyridin-2-yl)urea] were 0.6 µM and 12.6 nM.
Taken in the same sequence, the figures for `CC(C)(C)CN1CCC2(CC1)CN(c1ccc(C#N)cc1NC(=O)Nc1ccc(OC(F)(F)F)cc1)c1c(O)ccc(Cl)c12` [Example 69, 1-(2-(4-Chloro-7-hydroxy-1′-neopentylspiro[indoline-3,4′-piperidine]-1-yl)-5-cyanophenyl)-3-(4-(trifluoromethoxy)phenyl)urea] were 0.8 µM and 21.4 nM.
Take `CC(C)CN1CCC2(CC1)CN(c1ccccc1NC(=O)Nc1ccc(OC(F)(F)F)cc1)c1c(O)ccc(C(F)(F)F)c12` [Example 106, 1-(2-(7-Hydroxy-1′-isobutyl-4-(trifluoromethyl)spiro [indoline-3,4′-piperidine]-1-yl)phenyl)-3-(4-(trifluoromethoxy)phenyl) urea]: the IC50 in test [1] amounted to 0.1 µM. Further, in test [2], the Ki is 10.6 nM.
For `CC(C)(C)CN1CCC2(CC1)CN(c1ccccc1NC(=O)Nc1ccc(C(C)(C)C)cc1)c1c2ccc(F)c1O` [Example 2, 1-(4-tert-Butylphenyl)-3-(2-(6-fluoro-7-hydroxy-1′-neopentylspiro[indoline-3,4′-piperidine]-1-yl)phenyl)urea] the same measures were 0.6 µM and 9 nM.
Consider `CC(C)CN1CCC2(CC1)CN(c1ccccc1NC(=O)Nc1nc3ccc(F)cc3s1)c1c(O)ccc(C(F)(F)F)c12` [Example 31, 1-(6-Fluorobenzo[d]thiazol-2-yl)-3-(2-(7-hydroxy-1′-isobutyl-4-(trifluoromethyl)spiro[indoline-3,4′-piperidine]-1-yl)phenyl)urea], for which the IC50 in test [1] came out at 0.1 µM. Also, in test [2], the Ki is 16.4 nM.
Taken in the same sequence, the figures for `CC(C)(C)CN1CCC2(CC1)CN(c1ccccc1NC(=O)Nc1nc3ccc(Cl)nc3s1)c1c(O)ccc(-c3nc4c(Cl)cccc4s3)c12` [Example 117, 1-(2-(4-(4-Chlorobenzo[d]thiazol-2-yl)-7-hydroxy-1′-neopentylspiro[indoline-3,4′-piperidin]-1-yl)phenyl)-3-(5-chlorothiazolo[5,4-b]pyridin-2-yl)urea] were 0.6 µM and 29.6 nM.
For `CC(C)N1CCC2(CC1)CN(c1ccccc1NC(=O)Nc1ccc(OC(F)(F)F)cc1)c1c(O)ccc(C(F)(F)F)c12` [Example 107, 1-(2-(7-Hydroxy-1′-isopropyl-4-(trifluoromethyl)spiro [indoline-3,4′-piperidine]-1-yl)phenyl)-3-(4-(trifluoromethoxy)phenyl) urea] the same measures were 0.6 µM and 14.4 nM.
Taken in the same sequence, the figures for `CC(C)(C)CN1CCC2(CC1)CN(c1ccccc1NC(=O)Nc1nc3ccc(F)nc3s1)c1c(O)ccc(Cl)c12` [Example 170] were 0.5 µM and 6.5 nM.
In the case of `CCN(CC)S(=O)(=O)c1ccc(O)c2c1C1(CCN(CC(C)(C)C)CC1)CN2c1ccccc1NC(=O)Nc1ccc(OC(F)(F)F)cc1` [Example 91, N,N-Diethyl-7-hydroxy-1′-neopentyl-1-(2-(3-(4-(trifluoromethoxy)phenyl)ureido)phenyl)spiro [indoline-3,4′-piperidine]-4-sulfonamide trifluoroacetic acid salt], the IC50 in test [1] stood at 0.3 µM. In addition, the Ki in test [2] was 3.4 nM.
For `CC(C)(C)CN1CCC2(CC1)CN(c1ccccc1NC(=O)Nc1nc3ccccc3s1)c1c(O)ccc(Cl)c12` [Example 53, 1-(Benzo[d]thiazol-2-yl)-3-(2-(4-chloro-7-hydroxy-1′-neopentylspiro[indoline-3,4′-piperidine]-1-yl)phenyl)urea, TFA] the same measures were 0.5 µM and 7.5 nM.
Consider `CC(C)(C)CN1CCC2(CC1)CN(c1ccccc1NC(=O)Nc1ccc(OC(F)(F)F)cc1)c1c(O)c(F)cc(-c3ccc(C(F)(F)F)cc3)c12` [Example 154, 1-(2-(6-Fluoro-7-hydroxy-1′-neopentyl-4-(4-(trifluoromethyl)phenyl)spiro[indoline-3,4′-piperidine]-1-yl)phenyl)-3-(4-(trifluoromethoxy)phenyl)urea], for which, in test [1], the IC50 is 0.4 µM. Moreover, the Ki in test [2] was 38.8 nM.
For the compound `CC(C)(C)CN1CCC2(CC1)CN(c1ccccc1NC(=O)Nc1nc3ccc(F)cc3s1)c1c(O)ccc(F)c12` [Example 32, 1-(2-(4-Fluoro-7-hydroxy-1′-neopentylspiro[indoline-3,4′-piperidine]-1-yl)phenyl)-3-(6-fluorobenzo[d]thiazol-2-yl)urea], the 50% inhibitory concentration (IC50) in test [1] is 0.3 µM. The Ki in test [2] is 7.4 nM.
For `CC(C)(C)CN1CCC2(CC1)CN(c1ccccc1NC(=O)Nc1ccc(C(F)(F)F)nc1)c1c(O)ccc(C(F)(F)F)c12` [Example 23, 1-(2-(7-Hydroxy-1′-neopentyl-4-(trifluoromethyl)spiro[indoline-3,4′-piperidine]-1-yl)phenyl)-3-(6-(trifluoromethyl)pyridin-3-yl)urea] the same measures were 1.1 µM and 8 nM.
With `CCN(CC)S(=O)(=O)c1ccc(O)c2c1C1(CCN(CC(C)(C)C)CC1)CN2c1ccccc1NC(=O)Nc1nc2ccc(Cl)cc2s1` [Example 92, 1-(2-(3-(6-Chlorobenzo[d]thiazol-2-yl)ureido)phenyl)-N,N-diethyl-7-hydroxy-1′-neopentylspiro[indoline-3,4′-piperidine]-4-sulfonamide], the IC50 in test [1] amounted to 0.5 µM. For the same compound, the Ki in test [2] was found to be 15.8 nM.
Taken in the same sequence, the figures for `CC(C)(C)CN1CCC2(CC1)CN(c1ccccc1NC(=O)Nc1csc(Cl)n1)c1c(O)ccc(-c3nc4ccc(F)cc4s3)c12` [Example 114, 1-(2-Chlorothiazol-4-yl)-3-(2-(4-(6-fluorobenzo[d]thiazol-2-yl)-7-hydroxy-1′-neopentylspiro[indoline-3,4′-piperidin]-1-yl)phenyl)urea] were 0.1 µM and 5.6 nM.
For `CC(C)(C)CN1CCC2(CC1)CN(c1ccccc1NC(=O)Nc1nc3ccc(Cl)cc3s1)c1c(O)c(F)cc(Cl)c12` [Example 98, 1-(2-(4-Chloro-6-fluoro-7-hydroxy-1′-neopentylspiro [indoline-3,4′-piperidine]-1-yl)phenyl)-3-(6-chlorobenzo [d]thiazol-2-yl)urea] the same measures were 0.9 µM and 12.8 nM.
For `CC(C)(C)CN1CCC2(CC1)CN(c1ccccc1NC(=O)Nc1ccc(OC(F)F)cc1)c1c(O)ccc(C(F)(F)F)c12` [Example 17, 1-(4-(Difluoromethoxy)phenyl)-3-(2-(7-hydroxy-1′-neopentyl-4-(trifluoromethyl)spiro[indoline-3,4′-piperidine]-1-yl)phenyl)urea] the same measures were 0.4 µM and 9 nM.
Turning to `CC(C)c1nc(NC(=O)Nc2ccccc2N2CC3(CCN(CC(C)(C)C)CC3)c3c(Cl)ccc(O)c32)cs1` [Example 62, 1-(2-(4-Chloro-7-hydroxy-1′-neopentylspiro[indoline-3,4′-piperidine]-1-yl)phenyl)-3-(2-isopropylthiazol-4-yl)urea], the IC50 in test [1] was 0.8 µM. In addition, in test [2], the Ki is 13 nM.
Taken in the same sequence, the figures for `Cc1ccc2nc(NC(=O)Nc3ccccc3N3CC4(CCN(CC(C)(C)C)CC4)c4c(Cl)ccc(O)c43)sc2c1` [Example 40, 1-(2-(4-Chloro-7-hydroxy-1′-neopentylspiro[indoline-3,4′-piperidine]-1-yl)phenyl)-3-(6-methylbenzo[d]thiazol-2-yl)urea] were 0.5 µM and 5.6 nM.
For `COC(=O)c1ccc(O)c2c1C1(CCN(CC(C)(C)C)CC1)CN2c1ccccc1NC(=O)Nc1ccc(OC(F)(F)F)cc1` [Example 79, Methyl 7-hydroxy-1′-neopentyl-1-(2-(3-(4-(trifluoromethoxy)phenyl)ureido)phenyl)-spiro[indoline-3,4′-piperidine]-4-carboxylate] the same measures were 0.7 µM and 9 nM.
For `CC(C)(C)CN1CCC2(CC1)CN(c1cc(F)ccc1NC(=O)Nc1nc3ccc(F)cc3s1)c1c(O)ccc(Cl)c12` [Example 67, 1-(2-(4-Chloro-7-hydroxy-1′-neoopentylspiro[indoline-3,4′-piperidine]-1-yl)-4-fluorophenyl)-3-(6-fluorobenzo[d]thiazol-2-yl)urea] the same measures were 0.3 µM and 22.2 nM.
Turning to `CC(C)(C)CN1CCC(NC(=O)Nc2ccccc2N2CC3(CCN(CC(C)(C)C)CC3)c3c(C(F)(F)F)ccc(O)c32)CC1` [Example 24, 1-(2-(7-Hydroxy-1′-neopentyl-4-(trifluoromethyl)spiro[indoline-3,4′-piperidine]-1-yl)phenyl)-3-(1-neopentylpiperidin-4-yl)urea], the IC50 in test [1] was 0.4 µM. Moreover, the Ki in test [2] turned out to be 14.8 nM.
